Measurements from patent US20240409886A1, “CULTURE MEDIUM COMPRISING DIPEPTIDES” (Evonik Operations GmbH, priority 2017, published 2024).
Residues, ends and D or L forms follow the SMILES beside them.

Tested on: antibody-producing Chinese Hamster Ovary (CHO) cell (subclone DG44)
Assay: product titer (antibody concentration at the end of the cultivation)
Format: cell-based
Conditions: for rel. product titer [-]: end of cultivation, t=18h, relative units
Method: The effect of the Gln-Asn dipeptide on an antibody-producing Chinese Hamster Ovary (CHO) cell (subclone DG44; Life Technologies Corporation, Carlsbad, USA) was investigated using one-factor-at-a-time (OFAT) analysis.
The analysis was based on a comparison of the viable cell density and cell viability in a series of cell cultures, which were conducted at substantially identical culturing conditions, however, with increasing amounts of the Gln-Asn dipeptide in the medium. In order to keep the total amounts of Asn and Gln units (molar basis) in the various culture media constant, the molar concentration of free glutamine and free asparagine was reduced in accordance with the molar amount of the dipeptide added. A series of culture media having increasing amounts of the Gln-Asn dipeptide was prepared by mixing varying amounts of a Base Medium (comprising free Asn and Gln) and a Test Medium (comprising Asn-Gln dipeptide). A commercially available defined cell culture medium (TC-42, TeutoCell AG, Bielefeld, Germany) served as the Base Medium. (Any other suitable cell culture medium could be used.) A Test Medium (TC-42-EVO) was prepared so as to have identical nutrient concentrations compared to the Base Medium, however, instead of free Asn the Test Medium contained an equimolar amount (5.4 mM) of Gin-Asn dipeptide. Furthermore, the free Gln concentration in the Test Medium was set to a value such that the total concentration of Gln units in the Test Medium (i.e., free Gln and dipeptide-Gln) matched the concentration of free Gln in the Base Medium. All other nutrient concentrations in the Test Medium were the same as in the Base Medium. The Base Medium contained 1461.5 mg/l free Gln and 612 mg/l free Asn.
Six cell cultivations were then conducted with media containing varying amounts of the Test Medium and the Base Medium in the following proportions:
All media were set to pH 8.3. Salinity of the culture media was set to 285 mOsmol/kg with NaCl. All cultivations were conducted in on a rotary shaker under identical culture conditions (temperature, humidity, rpm, CO2, etc.), using standard cell culture methods. Three passages of a cell culture are conducted and viable cell density (VCD; 10^6 viable cells/ml) and cell viability (%) was followed in duplicate determinations, using […] determination.
Generally, an increased product titer is observed in all cultures including the Asn-containing dipeptide. In cultivations #2 and #3 (80% and 25% of the Asn present in form of the dipeptide, respectively) the product titer is more than 1.4-fold increased.

NC(=O)CC[C@H](N)C(=O)N[C@@H](CC(N)=O)C(=O)O [Gln-Asn, L-glutaminyl-L-asparagine] (H-Gln-Asn-OH) was tested, and the “rel. product titer [-]” value (0.3 mM dipeptide (#5)) was 1.01, the “rel. product titer [-]” value (0.8 mM dipeptide (#4)) was 1.11 and the “rel. product titer [-]” value (1.4 mM dipeptide (#3)) was 1.42. The “rel. product titer [-]” value (4.3 mM dipeptide (#2)) was 1.41, the “rel. product titer [-]” value (5.4 mM dipeptide (#1)) was 1.19 and the product titer increase (cultivation #2, 80% of the Asn present in form of the dipeptide) was “more than 1.4 fold”. The product titer increase (cultivation #3, 25% of the Asn present in form of the dipeptide) was “more than 1.4 fold” and the product titer (cultivations #1-#4, dipeptide 0.8 mM to 5.4 mM) was “Significantly improved”.
